The text below walks through data of patent US20100298447A1, “COMPOSITE PRODUCT OF LOW-SOLUBILITY DRUG AND SURFACTANT, AND PROCESS FOR PRODUCTION THEREOF” (priority 2007, published 2010).

A short description of the series: Solubility of aciclovir in water at room temperature. In kind it is physicochemical. The following applies: room temperature (25° C.). How it is done: Thus, an S/O solution could not be obtained. Thus, an aciclovir dispersion was prepared in the form of an S/O solution.

Consider `Nc1nc2c(ncn2COCCO)c(=O)[nH]1` [aciclovir], for which the solubility in water entry is “very poor”.
